Structures can show the parent of a compound that is named as a salt. Where two headings read alike, the source gives them in different places.
Legend:
Oryza sativa [1] = assay: Table 13 greenhouse trial, treatment at the 5-6 leaf stage: rice damage; type: in vivo; details: 20 days after application
Description: (§1) Seeds or rhizome pieces of mono- and dicotyledonous weed plants are placed into sandy loam soil in plastic pots, covered with soil and grown in a greenhouse under good growth conditions (temperature, atmospheric humidity, water supply). Weeds which are encountered in the cultivation of rice are cultivated in pots in which the water level is up to 2 cm over the soil surface. Three weeks after sowing, the test plants are treated at the three-leaf stage. The active compound combinations according to the invention, formulated as wettable powders or emulsion concentrates, and, in parallel experiments, the correspondingly formulated individual active compounds are sprayed onto the green parts of the plants at different dosages using an amount of water of 300 to 600 l/ha (converted), and, after about 3 to 4 weeks of the test plants in the greenhouse under optimum growth conditions (temperature, atmospheric humidity, water supply), the effect of the preparations is evaluated visually in comparison to untreated controls. In the case of rice or weeds which are encountered in the cultivation of rice, the active compounds are also added directly to the water for irrigation (application analogous to the so-called granules application) or sprayed onto plants and added to the water for irrigation. The experiments were designed with several, up to five, repetitions. The herbicidal compositions according to the invention also have good herbicidal post-emergence activity against a broad spectrum of economically important weed grasses and broad-leaved weeds.
Greenhouse trial: Treatment at the 5-6 leaf stage, evaluation 20 days after the application.

Oryza sativa [2] = assay: Table 15 greenhouse trial, treatment at the 2-3 leaf stage: rice damage; type: in vivo; details: 20 days after application
Description: as §1

Marsilea crenata = assay: Table 7 field trial, treatment at the 1-2 leaf stage: weed control; type: in vivo; details: 2 g of ai/ha, 28 days after application
Description: (§6) The examples mentioned below were carried out in the greenhouse, and in some instances, in field trials.

Oryza sativa [3] = assay: Table 12 greenhouse trial, treatment at the 1-2 leaf stage: rice damage; type: in vivo; details: in vivo
Description: as §1
(§2) Greenhouse trial: Treatment at the 1-2 leaf stage, evaluation 20 days after the application.

Oryza sativa [4] = details: in vivo
Description: as §1, with “The herbicidal compositions according to the invention also have good herbicidal post-emergence activity against a broad spectrum of economically important weed grasses and broad-leaved weeds.” left out

Scirpus maritimus = assay: Table 15 greenhouse trial, treatment at the 2-3 leaf stage: weed control; type: in vivo; details: 20 days after application
Description: as §1

Oryza sativa [5] = assay: Table 14 greenhouse trial, treatment at the 3-4 leaf stage: rice damage; type: in vivo; details: 21 days after application
Description: as §1
Greenhouse trial: Treatment at the 3-4 leaf stage, evaluation 21 days after the application.

Oryza sativa [6] = assay: Table 16 greenhouse trial, treatment at the 2-3 leaf stage: rice damage; type: in vivo; details: 20 days after application
Description: as §1
(§3) Greenhouse trail: Treatment at the 2-3 leaf stage, evaluation 20 days after the application.

Echinochloa crusgalli [7] = assay: Table 17 field trial, treatment at the 2 leaf stage: weed control; type: in vivo; details: 14 days after application
Text: (§4) Field trial: Treatment at the 2 leaf stage, evaluation 14 days after the application.

Cyperus serotinus [8] = assay: Table 21 field trial, treatment at the 2 leaf stage: weed control; type: in vivo; details: 2.5 g of ai/ha, 28 days after application
Text: Field trial: Treatment at the 2 leaf stage, evaluation 28 days after the application.

Oryza sativa [9] = assay: Table 10 greenhouse trial, treatment at the 1-2 leaf stage: rice damage; type: in vivo; details: in vivo
Description: as §1, §2

ECHCO = assay: Table 2 field trial, treatment at the 2-3 leaf stage weed grasses: weed control; type: in vivo, Echinochloa colona; details: 28 days after application
Description: as §6

Oryza sativa [10] = assay: Table 18 field trial, treatment at the 1-2 leaf stage: rice damage; type: in vivo; details: 14 days after application
Text: (§5) Field trial: Treatment at the 1-2 leaf stage, evaluation 14 days after the application.

Cyperus irria = assay: Table 3 field trial, treatment at the 2 leaf stage weed grasses: weed control; type: in vivo; details: 28 days after application
Description: as §6

Oryza sativa [11] = assay: Table 4 field trial: rice damage
Description: as §6

[12] = test system: Oryza sativa (paddy rice); assay: Table 1: damage to paddy rice; type: in vivo
Description: as §6

Eleusine indica = assay: Table 2 field trial, treatment at the 2-3 leaf stage weed grasses: weed control; type: in vivo; details: 28 days after application
Description: as §6

Oryza sativa [13] = assay: Table 20 field trial, treatment at the 4-6 leaf stage: rice damage; type: in vivo; details: 2.5 g of ai/ha, 28 days after application
Text: Field trial: Treatment at the 4-6 leaf stage, evaluation 28 days after the application.

Echinochloa crusgalli [14] = assay: Table 18 field trial, treatment at the 1-2 leaf stage: weed control; type: in vivo; details: 14 days after application
Text: as §5

Cyperus serotinus [15] = assay: Table 12 greenhouse trial, treatment at the 1-2 leaf stage: weed control; type: in vivo; details: 20 days after application
Description: as §1, §2

Cucumis dipsaceus = assay: Table 1: weed control by A1*), safener C3-1) and combination; type: in vivo
Description: as §6

Echinochloa crusgalli [16] = assay: Table 5 field trial, treatment at the 2-4 leaf stage rice: weed control; type: in vivo; details: evaluation after 28 days
Description: as §6

Scirpus juncoides = assay: Table 10 greenhouse trial, treatment at the 1-2 leaf stage: weed control; type: in vivo; details: 20 days after application
Description: as §1, §2

Cyperus serotinus [17] = assay: Table 19 field trial, treatment at the 2 leaf stage: weed control; type: in vivo; details: 14 days after application
Text: as §4

Cyperus iria = assay: Table 24 field trial, treatment by the pre-emergence method: weed control; type: in vivo; details: 53 days after application
Text: Field trial: Treatment by the pre-emergence method, evaluation 53 days after the application.

Leptochloa filiformis = assay: Table 2a field trial, treatment at the 2-3 leaf stage weed grasses: weed control; type: in vivo; details: 28 days after application
Description: as §6

Cyperus serotinus [18] = assay: Table 16 greenhouse trial, treatment at the 2-3 leaf stage: weed control; type: in vivo; details: 20 days after application
Description: as §1, §3

Oryza sativa [19] = assay: Table 3 field trial, treatment at the 4-5 leaf stage (seed rice): rice damage; details: 28 days after application
Description: as §6

SMILES: COC(=O)c1ccc(I)cc1S(=O)(=O)NC(=O)Nc1nc(C)nc(OC)n1 [A1*), Sodium salt of methyl 4-iodo-2-[3-(4-methoxy-6-methyl-1,3,5-triazin-2-yl)ureidosulfonyl]benzoate]
- ORYSW % damage (Oryza sativa [1]; 1.5 g of ai/ha): 10%
- ORYSW % damage (Oryza sativa [1]; 3 g of ai/ha): 10%
- ORYSW % damage (Oryza sativa [2]; 1.25 g of ai/ha): 5%
- ORYSW % damage (Oryza sativa [2]; 2.5 g of ai/ha): 10%
- ORYSW % damage (Oryza sativa [2]; 5 g of ai/ha): 10%
- MASCR % control (Marsilea crenata): 33%
- ORYSW % damage (Oryza sativa [3]): 10%
- ORYSW % damage (Oryza sativa [4]): 10%
- SCIMA % control (Scirpus maritimus; 1.25 g of ai/ha): 35%
- SCIMA % control (Scirpus maritimus; 2.5 g of ai/ha): 40%
- SCIMA % control (Scirpus maritimus; 5 g of ai/ha): 45%
- ORYSW % damage (Oryza sativa [5]; 1.5 g of ai/ha): 10%
- ORYSW % damage (Oryza sativa [5]; 3 g of ai/ha): 10%
- ORYSW % damage (Oryza sativa [6]; 1.25 g of ai/ha): 5%
- ORYSW % damage (Oryza sativa [6]; 2.5 g of ai/ha): 10%
- ORYSW % damage (Oryza sativa [6]; 5 g of ai/ha): 10%
- ECHCG % control (Echinochloa crusgalli [7]; 1 g of ai/ha): 5%
- ECHCG % control (Echinochloa crusgalli [7]; 2 g of ai/ha): 25%
- ECHCG % control (Echinochloa crusgalli [7]; 4 g of ai/ha): 45%
- CYPSE % control (Cyperus serotinus [8]): 25%
- ORYSW % damage (Oryza sativa [9]): 10%
- ECHCO % control (ECHCO; 1.25 g of ai/ha): 0%
- ECHCO % control (ECHCO; 2.5 g of ai/ha): 35%
- ECHCO % control (ECHCO; 5 g of ai/ha): 37%
- ORYSW % damage (Oryza sativa [10]; 1 g of ai/ha): 7%
- ORYSW % damage (Oryza sativa [10]; 2 g of ai/ha): 12%
- CYPIR % control (Cyperus irria; 0.75 g of ai/ha): 40%
- CYPIR % control (Cyperus irria; 1.5 g of ai/ha): 67%
- CYPIR % control (Cyperus irria; 2.5 g of ai/ha): 87%
- ORYSW % damage (Oryza sativa [11]; 1.25 g of ai/ha): 0%
- ORYSW % damage (Oryza sativa [11]; 2.5 g of ai/ha): 0%
- ORYSW % damage (Oryza sativa [11]; 5 g of ai/ha): 1%
- ORYSW % damage ([12]; 1.25 g of ai/ha): 15%
- ORYSW % damage ([12]; 2.5 g of ai/ha): 15%
- ELEIN % control (Eleusine indica; 1.25 g of ai/ha): 0%
- ELEIN % control (Eleusine indica; 2.5 g of ai/ha): 0%
- ELEIN % control (Eleusine indica; 5 g of ai/ha): 0%
- ORYSW % damage (Oryza sativa [13]): 8%
- ECHCG % control (Echinochloa crusgalli [14]; 1 g of ai/ha): 5%
- ECHCG % control (Echinochloa crusgalli [14]; 2 g of ai/ha): 25%
- CYPSE % control (Cyperus serotinus [15]; 1.5 g of ai/ha): 10%
- CYPSE % control (Cyperus serotinus [15]; 3 g of ai/ha): 30%
- CUMDI % control (Cucumis dipsaceus; 1.25 g of ai/ha): 60%
- CUMDI % control (Cucumis dipsaceus; 2.5 g of ai/ha): 80%
- ECHCG % control (Echinochloa crusgalli [16]; 1.25 g of ai/ha): 0%
- ECHCG % control (Echinochloa crusgalli [16]; 2.5 g of ai/ha): 0%
- ECHCG % control (Echinochloa crusgalli [16]; 5 g of ai/ha): 0%
- SCIJU % control (Scirpus juncoides; 1.5 g of ai/ha): 40%
- SCIJU % control (Scirpus juncoides; 3 g of ai/ha): 40%
- CYPSE % control (Cyperus serotinus [17]; 1.5 g of ai/ha): 10%
- CYPSE % control (Cyperus serotinus [17]; 3 g of ai/ha): 30%
- CYPIR % control (Cyperus iria; 2.5 g of ai/ha): 17%
- CYPIR % control (Cyperus iria; 5 g of ai/ha): 27%
- LEFFI % control (Leptochloa filiformis; 1.25 g of ai/ha): 0%
- LEFFI % control (Leptochloa filiformis; 2.5 g of ai/ha): 73%
- LEFFI % control (Leptochloa filiformis; 5 g of ai/ha): 72%
- CYPSE % control (Cyperus serotinus [18]; 1.25 g of ai/ha): 10%
- CYPSE % control (Cyperus serotinus [18]; 2.5 g of ai/ha): 30%
- CYPSE % control (Cyperus serotinus [18]; 5 g of ai/ha): 50%
- ORYSW % damage (Oryza sativa [19]; 0.75 g of ai/ha): 0%
- ORYSW % damage (Oryza sativa [19]; 1.5 g of ai/ha): 0%
- ORYSW % damage (Oryza sativa [19]; 2.5 g of ai/ha): 0%

Source: US6864217B2, “Herbicidal compositions with substituted phenylsulfonylureas for controlling weeds in rice” (Hoechst Schering AgrEvo GmbH, priority 1998, dated 2005)
